# Data published in patent US20180213795A1, “PLANT DISEASE CONTROL COMPOSITION AND PLANT DISEASE CONTROL METHOD” (SUMITOMO CHEMICAL COMPANY, LIMITED, priority 2015, published 2018).
# Experiments:
# Format in all cases: in vivo
# [1] = test system: damping-off fungus (Rhizoctonia solani); test: Test Example 23: soybean seed treatment, damping-off control in pots; details: soybean seeds, 20 days after
# [2] = test system: damping-off fungus (Pythium spp.); test: Test Example 21: corn seed treatment, damping-off control in pots; details: corn seeds, 20 days after
# Protocol: In a rotary seed treatment machine (trade name: HEGE11, manufactured by WINTERSTEIGER), corn seeds (variety: yellow dent corn) were treated by smearing treatment using a flowable formulation of the present bacterial strain as obtained in Formulation Example 13 and ethaboxam flowable formulation (34.6% flowable formulation, Valent U.S.A. Corporation), so that the […] retain the present bacterial strain and/or the compound in the amount shown in Table 6.
# Cultivation was carried out in a greenhouse under irrigation. Also, similar procedures were conducted using untreated corn seeds, instead of the treated corn seeds, as described above for the treated compartment (“untreated compartment”). The plants were investigated 20 days after for the number of diseased plants, and the disease incidence was calculated by the following “Equation 1”. The control value of the treated compartment was calculated by the following equation “Equation 2”, based on the disease incidences of the treated compartment and the untreated compartment.
# Disease incidence (%)=100×(number of diseased plant/total number of seeded seeds): Equation 1
# Control value (%)=100×[(disease incidence in […] in treated compartment)/disease incidence in untreated compartment]: Equation 2
# If the effect by the combination of two active ingredients is greater than that of the estimated value E, which is calculated by the Colby's equation as follows, the effect is regarded as synergistic.
# wherein, E=Control value when using the mixture of the active ingredients A and B at the concentrations m and n (amount of the active ingredient), respectively. X=Control value when using the active ingredient A at the concentration m (amount of the active ingredient). Y=Control value when using the active ingredient B at the concentration n (amount of the active ingredient).
# [3] = test system: damping-off fungus (Pythium spp.); test: Test Example 22: soybean seed treatment, damping-off control in pots; details: soybean seeds, 20 days after
# Protocol: If the effect by the combination of two active ingredients is greater than that of the estimated value E, which is calculated by the Colby's equation as follows, the effect is regarded as synergistic. E=X+Y-X·Y/100 wherein, E=Control value when using the mixture of the active ingredients A and B at the concentrations m and n (amount of the active ingredient), respectively. X=Control value when using the active ingredient A at the concentration m (amount of the active ingredient). Y=Control value when using the active ingredient B at the concentration n (amount of the active ingredient). […] Corporation) and metalaxyl flowable formulation (30.14% flowable formulation, trade name: […] Cultivation was carried out in a greenhouse under irrigation. Also, similar procedures were conducted using untreated soybean seeds, instead of the treated soybean seeds, as described above for the treated compartment (“untreated compartment”). […] Disease incidence (%)=100×(number of diseased plant/total number of seeded seeds): […]
smiles,measurement,setting,value
CC1CC(C)(C)c2cccc(NC(=O)c3cn(C)nc3C(F)F)c21 (racemic) [The Carboxamide Compound (1)],Control Value,[1]; carboxamide compound (1) 0.0004 g/kg seeds,40.0%
same,Control Value,[1]; carboxamide compound (1) 0.002 g/kg seeds,54.3%
same,Control Value,[1]; carboxamide compound (1) 0.01 g/kg seeds,65.7%
"CCNc1nc(CC)c(C(=O)NC(C#N)c2cccs2)s1 (stereo not drawn) [Ethaboxam, ethaboxam]",Control Value,[2]; ethaboxam 0.00625 g/kg seeds,19.4%
same,Control Value,[2]; ethaboxam 0.025 g/kg seeds,32.3%
same,Control Value,[2]; ethaboxam 0.1 g/kg seeds,48.4%
same,Control Value,[3]; ethaboxam 0.075 g/kg seeds,46.9%
same,Control Value,[3]; ethaboxam 0.15 g/kg seeds,56.2%
same,Control Value,[3]; ethaboxam 0.3 g/kg seeds,62.5%
"N#Cc1c[nH]cc1-c1cccc2c1OC(F)(F)O2 [Fludioxonil, fludioxonil]",Control Value,[1]; fludioxonil 0.004 g/kg seeds,25.7%
same,Control Value,[1]; fludioxonil 0.02 g/kg seeds,37.1%
same,Control Value,[1]; fludioxonil 0.1 g/kg seeds,48.6%
"COCC(=O)N(c1c(C)cccc1C)C(C)C(=O)OC (stereo not drawn) [Metalaxyl, metalaxyl]",Control Value,[3]; metalaxyl 0.01 g/kg seeds,40.6%
same,Control Value,[3]; metalaxyl 0.04 g/kg seeds,50.0%
same,Control Value,[3]; metalaxyl 0.16 g/kg seeds,59.4%
"COP(=S)(OC)Oc1c(Cl)cc(C)cc1Cl [Tolclofos-Methyl, tolclofos-methyl]",Control Value,[1]; tolclofos-methyl 0.01 g/kg seeds,11.4%
same,Control Value,[1]; tolclofos-methyl 0.05 g/kg seeds,28.6%
same,Control Value,[1]; tolclofos-methyl 0.25 g/kg seeds,42.8%
